From ChEMBL document CHEMBL5727027, “Compounds useful as CCR9 modulators” (2018)

Biological target: T1, C-C chemokine receptor type 9 (Homo sapiens, UniProt P51686)
T1 sequence (P51686 whole entry): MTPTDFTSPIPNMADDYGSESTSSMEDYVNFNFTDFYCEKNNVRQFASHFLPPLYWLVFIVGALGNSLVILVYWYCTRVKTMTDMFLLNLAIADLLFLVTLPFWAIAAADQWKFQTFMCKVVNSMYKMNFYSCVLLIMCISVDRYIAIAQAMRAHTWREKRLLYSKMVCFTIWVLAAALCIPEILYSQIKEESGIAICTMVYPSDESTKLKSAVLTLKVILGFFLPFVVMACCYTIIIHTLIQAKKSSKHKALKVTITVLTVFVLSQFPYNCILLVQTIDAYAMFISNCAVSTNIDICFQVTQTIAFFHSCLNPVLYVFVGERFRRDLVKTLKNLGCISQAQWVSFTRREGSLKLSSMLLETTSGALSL
Assay: FLIPR Assay: A calcium flux assay was used to determine the ability of the compounds to interfere with the binding between CCR9 and its chemokine ligand (TECK) in Chem1-hCCR9 overexpressing cells. hCCR9 overexpressing cells were seeded (25,000 cells/well) into black Poly-D-Lysine coated clear bottom 96-well plates (BD Biosciences, Cat #356640) and incubated overnight at 37° C./5% CO2 in a humidified incubator. Media was aspirated and cells washed twice with 100 μL assay buffer (1×HBSS, 20 mM HEPES) containing 2.5 mM Probenecid. A 0.3× Fluo-4 NW calcium dye was prepared in assay buffer containing 5 mM Probenecid and stored in the dark. Each well was loaded with 100 μL of 0.3× Fluo-4 NW calcium dye and incubated at 37° C./5% CO2 for 60 minutes and then at room temperature for 30 minutes. A half-log serially diluted concentration response curve was prepared at a 3× final assay concentration for each compound (10 μM-0.1 nM final assay concentration) and 50 μL of the compound then transferred to the cells (150 μL final volume) for 60 minutes prior to stimulation (30 minutes at 37° C./5% CO2 and 30 minutes at room temperature). TECK was diluted to 4× its EC80 in assay buffer (containing 0.1% [w/v] bovine serum albumin [BSA]) and 50 μL dispensed through the fluorometric imaging plate reader (FLIPR) instrument to stimulate the cells (200 μL final volume). […]
Format: cell-based

Ki: 84 nM
SMILES: CC(C)(C)c1ccc(S(=O)(=O)Nc2ccc(C#N)c3c2C(=O)N(Cc2ccc[n+]([O-])c2)C3=O)cc1
